US20190144828A1, “HAEMATOPOIETIC STEM/PROGENITOR CELLS” (priority 2016, published 2019)

Assays:
[1] = system: anterior and posterior HOXA genes; assay: HOXA gene expression in hPSCs with EC23 and/or SB CHIR (FIG. 29); format: cell-based, human; conditions: d2-4
Experimental: hPSCs were differentiated in medium supplemented with CHIR99021, BMP4, VEGF, SCF, ACTIVIN A and FGF2 (denoted CH BVSAF in FIG. 29) from d0-4, or with an additional pulse of SB431542 and CHIR99021 (denoted SB CHIR in FIG. 29) from d2-4. Cultures also were treated with the retinoic acid analogue EC23 at 0, 10^−5 M or 10^−7 M concentrations from d2-4 (denoted 0, 10-5 and 10-7, respectively in FIG. 29). […] Gene expression was normalized to GAPDH and is shown in arbitrary units in FIG. 29.

[2] = system: HOXA and CDX genes; assay: RT-PCR of HOXA and CDX genes in differentiating hESC cultures supplemented with SB, CHIR or SB/CHIR; format: cell-based, human; conditions: added from differentiation days 2 to 4; RT-PCR at d4 and d7
Experimental: Total RNA was prepared from ES cells and dissociated EBs using the Qiagen RNeasy kit or the Bioline Isolate II RNA Mini Kit according to the manufacturers' instructions. cDNA was reverse transcribed using random hexamer priming and Superscript III (Invitrogen) or Tetro (Bioline) cDNA synthesis kits as specified by the manufacturer. Human RUNX1 isoform specific primers (Table 1) were based on those designed for mouse Runx1 previously. For other genes, TaqMan gene expression probes and reagents (Applied Biosystems) were used for quantitative real-time PCR analysis and GAPDH was used as the reference gene to normalize data.
The HES3 and H9 human embryonic stem cell lines used in these studies were obtained from ES Cell International (now owned by Biotime Inc) and WiCell. The human ESC work was approved by the Monash Medical Centre and Royal Children's Hospital Human Research Ethics Committees. Culture and enzymatic passaging of hESC lines was performed as reported in Ng et al. Nature Protocols 3, 768-776 (2008). […] Brightfield and fluorescence images comparing RUNX1C^GFP/w with RUNX1C^GFP/GFP cell cultures shown in FIG. 1b were representative of 3 independent experiments. […]

| Structure (SMILES) | effectiveness on HOXA gene induction ([1]; 10^−5 M) | effectiveness on HOXA gene induction ([1]; 10^−7 M) | HOXA gene expression compared with control cultures [2] |
| --- | --- | --- | --- |
| CC1(C)CCC(C)(C)c2cc(C#Cc3ccc(C(=O)O)cc3)ccc21 [EC23] | effective | effective |  |
| NC(=O)c1ccc(-c2nc(-c3ccc4c(c3)OCO4)c(-c3ccccn3)[nH]2)cc1 [SB, SB431542] |  |  | increased HOXA3, HOXA7 and HOXA9 expression |
| Cc1c[nH]c(-c2cnc(NCCNc3ccc(C#N)cn3)nc2-c2ccc(Cl)cc2Cl)n1 [CHIR, CHIR99021] |  |  | increased HOXA9 and HOXA10 expression |
